The values below come from US9167837B2, “Peptides imparting umami, salt, dairy and bitter flavor” (International Flavors & Fragrances Inc., priority 2007, dated 2015).

The nature of experiment [1]: Addition of flavor active peptide to unflavored cheese sauce, evaluation of imparted flavor. As to conditions: 0.015% (w/w based) peptide added to unflavored cheese sauce of Table 1. As for the experimental part: Addition of the Gly-Pro-Phe-Pro-Ile (SEQ ID NO:2) peptide to the unflavored cheese sauce listed in Table 1 was carried out to evaluate the flavor imparted by the flavor active peptide. The cheese sauce formulation can be described as having a mild, Monterey Jack cheese sauce flavor with some salty and savory notes.

Experiment [2] in a line: Addition of flavor active peptide to seasoned microwave popcorn, evaluation of imparted flavor. Conditions: approximately 0.1% peptide in popped microwave popcorn with White Cheddar Snack Seasoning (Table 3). As for the experimental part: Addition of the Gly-Pro-Phe-Pro-Ile (SEQ ID NO:2) peptide to the base microwave popcorn listed in Table 2 was carried out to evaluate the flavor imparted by the flavor active peptide.
The sodium content of the resulting seasoned popcorn was 596.6 mg Na^+/1 oz serving.

Take “Gly-Pro-Phe-Pro-Ile (GPFPI) [Gly-Pro-Phe-Pro-Ile (SEQ ID NO:2)]”: the “flavor imparted by the flavor active peptide” value is “made the sauce taste more salty, creamy and dairy” in experiment [1]; “imparted an increase in cheesyness, mouthfeel, and some umami character” in experiment [2].
